The record followed here is ChEMBL document CHEMBL1201862, “PubChem BioAssay data set” (2004).

Molecules are shown by their SMILES.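 Protocol summary: plate cells (96-well), add compound at 5 concentrations, incubate 48 h, interpolate endpoints linearly. GI50 is the concentration that inhibits growth by half.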 The source made the active and inactive calls. No stated cut-off is given here; in the data, active = GI50 up to about 1.1 µM and inactive = higher.

Test systems include DLD-1; LXFL 529; M19-MEL; DMS-114; DMS-273; HOP-18; RXF 631; SNB-78; XF498.
Holding throughout (assay): NCI anticancer screen, dose series, 48 h

As to `CN1C(=O)C(Cl)(C(Cl)(Cl)S(=O)(=O)O)C(=O)c2ccccc21.c1ccncc1` (stereo not drawn), the GI50 with DLD-1, with LXFL 529 and in the assay on M19-MEL was > 100 µM (inactive) each time.
As to `c1ccc(-c2nnc3nn4c(-c5ccccc5)cnnc4c3c2-c2ccccc2)cc1`, the GI50 was 95.1 µM (inactive) in the assay with DLD-1; 35.6 µM (inactive) in the assay with DMS-114; > 100 µM (inactive) in the assay on DMS-273; 53 µM (inactive) in the assay with HOP-18; 42.7 µM (inactive) in the assay with LXFL 529; 88.7 µM (inactive) in the assay with M19-MEL. The values for the GI50 with RXF 631, in the assay on SNB-78 and in the assay on XF498 were 18.7 µM (inactive), 31.7 µM (inactive) and 27.5 µM (inactive), respectively.
As for `COc1ccc(/C=N/N=C(\N)NO)cc1OC`, the GI50 with DLD-1 is 60.1 µM (inactive); in the assay on DMS-114, 28.7 µM (inactive); in the assay on DMS-273 it was 48.9 µM (inactive); with LXFL 529 it was 33.9 µM (inactive); in the assay on M19-MEL, 44.8 µM (inactive); with SNB-78, > 100 µM (inactive). The GI50 in the assay on XF498 was 35.1 µM (inactive).
Take `C[C@H](OCc1ccccc1)C(=O)N1CCS(=O)(=O)N2CCC[C@H]2C1=O`: the GI50 with DLD-1, with DMS-114, in the assay with HOP-18, in the assay on LXFL 529, in the assay on M19-MEL and with RXF 631 was > 100 µM (inactive) in each case. Moreover, the GI50 with SNB-78 was > 100 µM (inactive).
`COc1cc2c(c(OC)c1OC)-c1ccc(SC)c(=O)cc1C(CC(=O)Oc1cccc(F)c1)C2` (stereo not drawn): the GI50 in the assay on DLD-1 is 0.397 µM (active); with DMS-114 it was 0.24 µM (active); with DMS-273 it was 0.214 µM (active); with HOP-18, > 62.2 µM (inactive); with LXFL 529, 0.316 µM (active); with M19-MEL, 0.263 µM (active). Besides, the GI50 with RXF 631 was 0.115 µM (active); in the assay on SNB-78, 0.237 µM (active); in the assay with XF498 it was 0.344 µM (active).
Regarding `Cc1cc(O)nc(NNC(C#N)c2ccccc2O)n1` (stereo not drawn), the GI50 was 18.4 µM (inactive) in the assay with DLD-1; 19.8 µM (inactive) with DMS-114; 5.27 µM (inactive) with DMS-273; 23.3 µM (inactive) in the assay on HOP-18; 17.8 µM (inactive) in the assay with M19-MEL.
In the case of `COC(=O)c1ccccc1/N=C/c1ccc(N(CCC#N)S(=O)(=O)c2ccccc2)cc1`, the GI50 with DLD-1, with DMS-273, in the assay on HOP-18, in the assay on LXFL 529, in the assay on M19-MEL and in the assay on RXF 631 was > 100 µM (inactive) in each case. Also, the GI50 in the assay with SNB-78 and with XF498 was > 100 µM (inactive) throughout.
As for `O=C1NC(c2ccccc2)(c2ccccc2)C(=O)N1CCCCCCN1C(=O)NC(c2ccccc2)(c2ccccc2)C1=O`, the GI50 in the assay with DLD-1 is > 100 µM (inactive); with DMS-114 it was 34.2 µM (inactive); in the assay on DMS-273 it was 46 µM (inactive); with HOP-18 it was 26.2 µM (inactive); with LXFL 529, 25.9 µM (inactive); with M19-MEL, > 100 µM (inactive). Also, the figures for the GI50 in the assay with SNB-78 and in the assay on XF498 were 33.3 µM (inactive) and 10.3 µM (inactive), respectively.
`CS(=O)(=O)c1ccc(COP(N)(=O)N(CCCl)CCCl)cc1` (stereo not drawn): the GI50 in the assay with DLD-1, in the assay with DMS-114, in the assay on DMS-273, with LXFL 529, in the assay on M19-MEL and with SNB-78 was > 100 µM (inactive) throughout. Also, the GI50 in the assay on XF498 was > 100 µM (inactive).
Take `COC(=O)/C=C1/CCC2[C@@H](C(=O)CC3[C@]2(C)CCC[C@@]3(C)C(=O)OC)C1C` (stereo partly drawn): the GI50 in the assay with DLD-1 is 12.7 µM (inactive); in the assay on DMS-114 it was 10.3 µM (inactive); with DMS-273 it was 12.7 µM (inactive); with HOP-18 it was 14.4 µM (inactive); in the assay on LXFL 529, 6.22 µM (inactive); with M19-MEL, 15.5 µM (inactive). Moreover, the GI50 in the assay on RXF 631 was 15.5 µM (inactive); with SNB-78 it was 10 µM (inactive); with XF498 it was 15.3 µM (inactive).
For `O=c1cc(-c2ccccc2)oc2cc(O)cc(O)c12` [CHRYSIN], the GI50 with DMS-114 is 22.4 µM (inactive); with DMS-273 it was 16.2 µM (inactive); with LXFL 529 it was 21.1 µM (inactive); with M19-MEL, 25.5 µM (inactive); with SNB-78 it was 28.8 µM (inactive); with XF498, 20 µM (inactive).
Regarding `COc1ccc(-c2cc(=O)c3c(O)cc(O)cc3o2)c(OC)c1OC`, the GI50 in the assay with DLD-1 is 81.3 µM (inactive); with DMS-114 it was 50.1 µM (inactive); in the assay with LXFL 529, 49.3 µM (inactive); in the assay on M19-MEL, 63 µM (inactive); in the assay with XF498, 63 µM (inactive).
Consider `CCN1CCC(O)(c2ccc(Cl)cc2)C(C(=O)c2ccc(Cl)cc2)C1` (stereo not drawn), for which the GI50 is > 100 µM (inactive) in the assay on DLD-1; > 100 µM (inactive) in the assay on DMS-273; 22.6 µM (inactive) in the assay with HOP-18; > 100 µM (inactive) in the assay with LXFL 529; > 100 µM (inactive) in the assay with M19-MEL; > 100 µM (inactive) in the assay with SNB-78. In addition, the GI50 in the assay on XF498 was > 100 µM (inactive).
For the molecule `CCCc1nn(C)c(CCC(=O)N(Cc2ccccc2)Cc2ccccc2)c1CC`, the GI50 with DLD-1, with DMS-114, in the assay on HOP-18, in the assay with LXFL 529, in the assay with M19-MEL and in the assay on SNB-78 was > 100 µM (inactive) in each case. Besides, the GI50 in the assay with XF498 was > 100 µM (inactive).
As for `COc1ccc(OC)c(CCc2ccccc2CC(=O)O)c1`, the GI50 in the assay with DLD-1, with DMS-114, in the assay with DMS-273, in the assay on HOP-18, in the assay with LXFL 529 and in the assay with M19-MEL was > 100 µM (inactive) throughout. Besides, the GI50 in the assay on SNB-78 and with XF498 was > 100 µM (inactive) in each case.
Regarding `O=C1[C@@H]2C3SC(c4ccccc43)[C@@H]2C(=O)N1c1ccccc1`, the GI50 with DLD-1 was > 100 µM (inactive); in the assay with DMS-114, > 100 µM (inactive); in the assay on DMS-273, > 100 µM (inactive); with HOP-18 it was > 90.4 µM (inactive); in the assay on LXFL 529, > 100 µM (inactive); in the assay on M19-MEL, > 100 µM (inactive). The GI50 was > 100 µM (inactive) with SNB-78 and 61 µM (inactive) in the assay with XF498.
With `CC[N+]1(C)CCC(O)(/C=C/c2ccccc2)C(C(=O)/C=C/c2ccccc2)C1` (stereo not drawn), the GI50 is 4.98 µM (inactive) in the assay with DLD-1; 6.62 µM (inactive) in the assay with DMS-114; 4.72 µM (inactive) in the assay with DMS-273; 16.6 µM (inactive) with HOP-18; 2.79 µM (inactive) in the assay on LXFL 529; 9.98 µM (inactive) in the assay on M19-MEL. The GI50 with SNB-78 was 24 µM (inactive); in the assay on XF498 it was 8.43 µM (inactive).
Turning to `O=[N+]([O-])/C=C/c1ccc(Cl)cc1Cl`, the GI50 was 24.7 µM (inactive) in the assay on DLD-1; 17.8 µM (inactive) with DMS-114; 11 µM (inactive) in the assay with DMS-273; 13.8 µM (inactive) with LXFL 529; 5.77 µM (inactive) in the assay with M19-MEL.
As to `COC[C@@H](/N=C/N1CCc2cc(OC)c(OC)cc2C1)C(C)(C)C`, the GI50 in the assay on DLD-1, in the assay on DMS-114, with HOP-18, in the assay with LXFL 529, with M19-MEL and with RXF 631 was > 100 µM (inactive) in each case. Further, the GI50 in the assay on XF498 is > 100 µM (inactive).
In the case of `COc1ccc2nc3ccccc3c(NCCN(CCCl)CCCl)c2c1`, the GI50 with DLD-1 is 0.738 µM (active); with DMS-273, 0.333 µM (active); with LXFL 529, 0.466 µM (active); with M19-MEL it was 1.27 µM (inactive); in the assay on RXF 631 it was 0.455 µM (active); in the assay with SNB-78, 0.769 µM (active). Besides, in the assay on XF498, the GI50 is 0.497 µM (active).
On to `CC[C@H](C)C(=O)O[C@H]1C[C@@H](C)C=C2C=C[C@H](C)[C@H](CC[C@@H]3C[C@@H](O)CC(=O)O3)[C@H]21` [LOVASTATIN], for which the GI50 in the assay with DLD-1 is > 30 µM (inactive); in the assay with DMS-114 it was > 30 µM (inactive); with DMS-273, 8.69 µM (inactive); with HOP-18 it was > 30 µM (inactive); in the assay on LXFL 529, 7.76 µM (inactive); with M19-MEL it was 2.42 µM (inactive).
Turning to `O=C(N/C(=C\c1cccc([N+](=O)[O-])c1)c1nc2cc([N+](=O)[O-])ccc2[nH]1)c1ccccc1`, the GI50 in the assay on DLD-1 was 28.4 µM (inactive); in the assay with DMS-273, 39 µM (inactive); in the assay with LXFL 529, 11 µM (inactive); with M19-MEL it was 40.7 µM (inactive); with RXF 631 it was 28.8 µM (inactive); in the assay with SNB-78, 49.3 µM (inactive). Moreover, in the assay on XF498, the GI50 was 20.7 µM (inactive).
For the molecule `Cc1ccccc1C(C#N)/C(=N/NC(=O)C(=O)NN)C(=O)Nc1cccc(C(F)(F)F)c1` (stereo not drawn), the GI50 in the assay with DLD-1, with DMS-114, in the assay on DMS-273, in the assay on HOP-18, with LXFL 529 and in the assay with M19-MEL was > 100 µM (inactive) in each case. Also, the GI50 with RXF 631 and in the assay with SNB-78 was > 100 µM (inactive) each time.
For `CC(=O)OC1COC(n2c(=S)n(-c3ccccc3)c(=O)c3ccccc32)C(OC(C)=O)C1OC(C)=O` (stereo not drawn), the GI50 in the assay with DLD-1 was 56.5 µM (inactive); in the assay on DMS-114, 40.6 µM (inactive); in the assay with DMS-273, 19.2 µM (inactive); with HOP-18, > 100 µM (inactive); in the assay with LXFL 529 it was 8.55 µM (inactive); in the assay on RXF 631 it was 47.9 µM (inactive). Moreover, the GI50 in the assay with SNB-78 was > 100 µM (inactive); with XF498, 74.6 µM (inactive).
As to `CCC12CCCN(Cc3ccccc3)C1c1c(n(C)c3ccccc13)C(C(=O)OC)C2` (stereo not drawn), the GI50 in the assay with DLD-1 is 212 µM (inactive); in the assay with DMS-114 it was 90.6 µM (inactive); with DMS-273, 84.5 µM (inactive); in the assay on LXFL 529 it was 96.6 µM (inactive); with M19-MEL, 112 µM (inactive); in the assay with RXF 631, 111 µM (inactive). Also, the GI50 with XF498 is 36.8 µM (inactive).
On to `CNS(=O)(=O)NNS(=O)(=O)c1ccc2ccccc2c1`, for which the GI50 with DLD-1, in the assay on DMS-114, with DMS-273, in the assay on HOP-18, in the assay with LXFL 529 and in the assay with M19-MEL was > 100 µM (inactive) each time. The GI50 in the assay on SNB-78 is > 100 µM (inactive).
